This note sets out measurements from ChEMBL document CHEMBL5241054, “Effective anti-aromatase therapy to battle against estrogen-mediated breast cancer: Comparative SAR/QSAR assessment on steroidal aromatase inhibitors” (Eur J Med Chem, 2020).

What is called IC50 is the point on the concentration scale where inhibition reaches its midpoint. A lower IC50 goes with higher potency.

Structures are written as SMILES.

The assay concerns the target T1, Aromatase (Homo sapiens, UniProt P11511).
T1 sequence (P11511 whole entry): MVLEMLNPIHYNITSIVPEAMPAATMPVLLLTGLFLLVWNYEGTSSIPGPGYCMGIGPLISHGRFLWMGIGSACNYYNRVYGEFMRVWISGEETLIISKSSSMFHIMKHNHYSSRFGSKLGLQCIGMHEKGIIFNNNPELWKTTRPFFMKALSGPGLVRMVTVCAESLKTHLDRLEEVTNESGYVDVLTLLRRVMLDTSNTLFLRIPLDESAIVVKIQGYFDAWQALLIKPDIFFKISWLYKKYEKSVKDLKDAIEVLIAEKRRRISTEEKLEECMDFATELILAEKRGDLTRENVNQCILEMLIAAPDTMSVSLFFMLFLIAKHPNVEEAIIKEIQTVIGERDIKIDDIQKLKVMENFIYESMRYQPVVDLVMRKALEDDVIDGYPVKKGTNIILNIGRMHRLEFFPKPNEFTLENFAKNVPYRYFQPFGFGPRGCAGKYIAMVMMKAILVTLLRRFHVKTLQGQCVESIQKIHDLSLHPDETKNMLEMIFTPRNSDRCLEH
In turn, `C[C@]12CCC(=O)C=C1C[C@H](CCc1ccccc1)[C@@H]1[C@@H]2CC[C@]2(C)C(=O)CC[C@@H]12` showed an IC50 of 40.2 nM.
`C[C@]12CCC(=O)C=C1C[C@H](Cc1ccccc1)[C@@H]1[C@@H]2CC[C@]2(C)C(=O)CC[C@@H]12` showed an IC50 of 44.5 nM.
With `C[C@]12CC[C@H]3[C@@H]([C@H](Cc4ccccc4)CC4=CC(=O)CC[C@@]43C)[C@@H]1CC[C@@H]2O` the figure was 39.5 nM; with `C[C@]12CC[C@H]3[C@@H]([C@H](CCc4ccccc4)CC4=CC(=O)CC[C@@]43C)[C@@H]1CC[C@@H]2O`, 36 nM.
`C[C@H]1C[C@@H]2[C@H](CC[C@]3(C)C(=O)CC[C@@H]23)[C@@]2(C)CCCC=C12` gave an IC50 of 37 nM.
In turn, `CO[C@@H]1C[C@@H]2[C@H](CC[C@]3(C)C(=O)CC[C@@H]23)[C@@]2(C)CCCC=C12` showed an IC50 of 50 nM.
With `C[C@]12CCC=CC1=CC[C@@H]1[C@@H]2CC[C@]2(C)C(=O)CC[C@@H]12` the figure was 340 nM.
With `CC[C@]12C=CC(=O)C=C1C=C[C@H]1[C@@H]3CCC(=O)[C@@]3(C)CC[C@@H]12` the figure was 360 nM; with `CC[C@]12C=CC(=O)C=C1CC[C@H]1[C@@H]3CCC(=O)[C@@]3(C)CC[C@@H]12`, 160 nM.
As for `CC[C@H]1C[C@@H]2[C@H](CC[C@]3(C)C(=O)CC[C@@H]23)[C@@]2(C)CCCC=C12`, the figure is 110 nM; as for `C[C@]12CC[C@H]3[C@@H](C(=O)C=C4CCCC[C@@]43CO)[C@@H]1CCC2=O`, 3300 nM; as for `CO[C@H]1C[C@@H]2[C@H](CC[C@]3(C)C(=O)CC[C@@H]23)[C@@]2(C)CCCC=C12`, 160 nM.
On to `CC[C@]12CCC(=O)C=C1C=C[C@@H]1[C@@H]2CC[C@]2(C)C(=O)CC[C@@H]12`, for which the IC50 is 300 nM.
With `C[C@]12CCC(=O)C=C1[C@@H]1[C@H]([C@@H]3[C@@H]2CC[C@]2(C)C(=O)CC[C@@H]32)C1(F)F` the figure was 1150 nM.
With `C[C@@H]1C[C@@H]2[C@H](CC[C@]3(C)C(=O)CC[C@@H]23)[C@@]2(C)CCCC=C12` the figure was 49 nM; with `CC(=O)O[C@@H]1C[C@@H]2[C@H](CC[C@]3(C)C(=O)CC[C@@H]23)[C@@]2(C)CCCC=C12`, 120 nM.
With `CC(=O)O[C@H]1C[C@@H]2[C@H](CC[C@]3(C)C(=O)CC[C@@H]23)[C@@]2(C)CCCC=C12`, the IC50 is 190 nM.
`C[C@]12CC[C@H]3[C@@H](CCC4=CC(=O)CC[C@@]43CO)[C@@H]1CCC2=O` had an IC50 of 13000 nM.
Molecule `C[C@]12CCC=CC1=CC(=O)[C@@H]1[C@@H]2CC[C@]2(C)C(=O)CC[C@@H]12` had an IC50 of 1800 nM.
Take `C[C@]12CCC(=O)c3[nH]nc(c31)C[C@@H]1[C@@H]2CC[C@]2(C)C(=O)CC[C@@H]12`: 236 nM corresponded to half-maximal inhibition (IC50).
With `C[C@]12CCC(=O)c3c1c(nn3C/C=C/c1ccccc1)C[C@@H]1[C@@H]2CC[C@]2(C)C(=O)CC[C@@H]12` the figure was 899 nM.
Turning to `C[C@]12CC[C@H]3[C@@H](C=CC4=CC(=O)C=C[C@@]43CBr)[C@@H]1CCC2=O`, inhibition was half-maximal at 2100 nM (IC50).
As for `C[C@]12CCCCC1=CC(=O)[C@@H]1[C@@H]2CC[C@]2(C)C(O)CC[C@@H]12` (stereo partly drawn), the figure is 1600 nM.
With `C[C@]12CC[C@H]3[C@@H](C=CC4=CC(=O)CC[C@@]43CCl)[C@@H]1CCC2=O` the figure was 760 nM; with `C[C@]12CC[C@H]3[C@@H](C=CC4=CC(=O)C=C[C@@]43CCl)[C@@H]1CCC2=O`, 1330 nM.
With `CCC[C@H]1C[C@@H]2[C@H](CC[C@]3(C)C(=O)CC[C@@H]23)[C@@]2(C)CCCC=C12` the figure was 230 nM.
Consider `C[C@]12CC[C@H]3[C@@H](CCC4=CC(=O)C=C[C@@]43CCl)[C@@H]1CCC2=O`, for which the IC50 is 951 nM.
With `C[C@]12CC[C@H]3[C@@H](C(=O)C=C4C=CCC[C@@]43CO)[C@@H]1CCC2=O` the figure was 60000 nM.
With `C[C@]12CC[C@H]3[C@@H](CCC4=CC(=O)C=C[C@@]43CI)[C@@H]1CCC2=O` the figure was 5500 nM; with `C[C@]12CC[C@H]3[C@@H](CC=C4CCCC[C@@]43CO)[C@@H]1CCC2O` (stereo partly drawn), 61900 nM.
As for `C[C@]12CCC(=O)c3nn(Cc4ccccc4)c(c31)C[C@@H]1[C@@H]2CC[C@]2(C)C(=O)CC[C@@H]12`, the figure is 245 nM; as for `C[C@]12CC[C@H]3[C@@H](C=CC4=CC(=O)C=C[C@@]43CI)[C@@H]1CCC2=O`, 4700 nM; as for `C[C@H]1C[C@@H]2[C@H](CC[C@]3(C)C(O)CC[C@@H]23)[C@@]2(C)CCCC=C12` (stereo partly drawn), 260 nM.
Molecule `C[C@]12CC[C@H]3[C@@H](C(=O)C=C4C=CCC[C@@]43C=O)[C@@H]1CCC2=O` showed an IC50 of 11000 nM.
Turning to `C[C@]12CCC(=O)c3c1c(nn3Cc1ccc([N+](=O)[O-])cc1)C[C@@H]1[C@@H]2CC[C@]2(C)C(=O)CC[C@@H]12`, the IC50 is 658 nM.
`C[C@]12CC[C@H]3[C@@H](CCC4=CC(=O)CC[C@@]43C)[C@@H]1CC[C@@H]2OC(=O)CBr` had an IC50 of 50000 nM.
Consider `C[C@]12CCC(=O)c3nn(C/C=C/c4ccccc4)c(c31)C[C@@H]1[C@@H]2CC[C@]2(C)C(=O)CC[C@@H]12`, for which half-maximal inhibition (IC50) required 951 nM.
As for `C[C@]12CC[C@H]3[C@@H](C=CC4=CC(=O)CC[C@@]43CBr)[C@@H]1CCC2=O`, the figure is 1400 nM.
With `C[C@]12CCCCC1=CC[C@@H]1[C@@H]2CC[C@]2(C)C(=O)[C@H](Br)C[C@@H]12` the figure was 55000 nM; with `C[C@]12CCC=CC1=CC[C@@H]1[C@@H]2CC[C@]2(C)C(O)CC[C@@H]12` (stereo partly drawn), 18000 nM.
The molecule `C[C@]12CCCCC1=CC[C@@H]1[C@@H]2CC[C@]2(C)C(O)CC[C@@H]12` (stereo partly drawn) gave an IC50 of 30000 nM.
`CC[C@@H]1C[C@@H]2[C@H](CC[C@]3(C)C(=O)CC[C@@H]23)[C@@]2(C)CCCC=C12` had an IC50 of 320 nM.
As for `C[C@]12CC[C@H]3[C@@H]([C@@H]4C[C@@H]4C4=CCCC[C@@]43C)[C@@H]1CC[C@@H]2O`, the figure is 2700 nM; as for `CCCCC[C@@H]1C[C@@H]2[C@H](CC[C@]3(C)C(=O)CC[C@@H]23)[C@@]2(C)CCCC=C12`, 12000 nM; as for `C[C@]12CCC(=O)c3c1c(nn3Cc1ccccc1)C[C@@H]1[C@@H]2CC[C@]2(C)C(=O)CC[C@@H]12`, 342 nM.
`C[C@@H]1C[C@@H]2[C@H](CC[C@]3(C)C(O)CC[C@@H]23)[C@@]2(C)CCCC=C12` (stereo partly drawn) gave an IC50 of 3700 nM.
Molecule `C[C@]12CCC(=O)c3nn(Cc4cccc([N+](=O)[O-])c4)c(c31)C[C@@H]1[C@@H]2CC[C@]2(C)C(=O)CC[C@@H]12` gave an IC50 of 490 nM.
Molecule `C[C@]12CC[C@H]3[C@@H](CCC4=CC(=O)C=C[C@@]43CBr)[C@@H]1CCC2=O` showed an IC50 of 1000 nM.
The molecule `CC(=O)O[C@@H]1CCC[C@@]2(CO)C1=CC[C@@H]1[C@@H]2CC[C@]2(C)C(=O)CC[C@@H]12` gave an IC50 of 11000 nM.
`C[C@]12CC[C@H]3[C@@H](C=CC4=CC(=O)CC[C@@]43CI)[C@@H]1CCC2=O` showed an IC50 of 6100 nM.
With `CC[C@@H]1C[C@@H]2[C@H](CC[C@]3(C)C(O)CC[C@@H]23)[C@@]2(C)CCCC=C12` (stereo partly drawn) the figure was 1300 nM.
As for `C[C@]12CCC(=O)C=C1[C@H](OC(=O)CBr)C[C@@H]1[C@@H]2CC[C@]2(C)C(=O)CC[C@@H]12`, the figure is 45000 nM.
With `C[C@]12CC[C@@H]3C4CCCCC4=CC(=O)[C@H]3[C@@H]1CCC2=O` (stereo partly drawn) the figure was 28000 nM; with `C[C@]12CC[C@H]3[C@@H](C(=O)C=C4CCCC[C@@]43C=O)[C@@H]1CCC2=O`, 60000 nM; with `C[C@]12CC[C@H]3[C@@H](CC=C4CCCC[C@@]43C=O)[C@@H]1CCC2=O`, 8990 nM.
`C[C@]12CC[C@H]3[C@@H](C(=O)C=C4CCCC[C@@]43CO)[C@@H]1CCC2O` (stereo partly drawn) had an IC50 of 43000 nM.
With `C[C@]12CCCC=C1[C@H]1C[C@H]1[C@@H]1[C@@H]2CC[C@]2(C)C(=O)CC[C@@H]12` the figure was 150 nM.
With `C[C@]12CCC=CC1=CC(=O)[C@@H]1[C@@H]2CC[C@]2(C)C(O)CC[C@@H]12` (stereo partly drawn) the figure was 42000 nM; with `CCC[C@@H]1C[C@@H]2[C@H](CC[C@]3(C)C(=O)CC[C@@H]23)[C@@]2(C)CCCC=C12`, 440 nM.
`CC[C@H]1C[C@@H]2[C@H](CC[C@]3(C)C(O)CC[C@@H]23)[C@@]2(C)CCCC=C12` (stereo partly drawn) showed an IC50 of 130 nM.
`CCCCCC[C@H]1C[C@@H]2[C@H](CC[C@]3(C)C(=O)CC[C@@H]23)[C@@]2(C)CCCC=C12` had an IC50 of 8990 nM.
As for `C[C@]12CC[C@@H]3C4CCC=CC4=CC(=O)[C@H]3[C@@H]1CCC2=O` (stereo partly drawn), the figure is 33000 nM; as for `C[C@]12CC[C@H]3[C@@H](CC(=O)C4=CC(=O)CC[C@@]43C)[C@@H]1CC[C@@H]2OC(=O)CBr`, 42000 nM.
